The assay concerns the target T1, human FXR (NR1H4) (Homo sapiens, UniProt Q96RI1).
T1 construct: host or cells: CHO (Chinese hamster ovary) reporter cells
T1 sequence (Q96RI1 1-486): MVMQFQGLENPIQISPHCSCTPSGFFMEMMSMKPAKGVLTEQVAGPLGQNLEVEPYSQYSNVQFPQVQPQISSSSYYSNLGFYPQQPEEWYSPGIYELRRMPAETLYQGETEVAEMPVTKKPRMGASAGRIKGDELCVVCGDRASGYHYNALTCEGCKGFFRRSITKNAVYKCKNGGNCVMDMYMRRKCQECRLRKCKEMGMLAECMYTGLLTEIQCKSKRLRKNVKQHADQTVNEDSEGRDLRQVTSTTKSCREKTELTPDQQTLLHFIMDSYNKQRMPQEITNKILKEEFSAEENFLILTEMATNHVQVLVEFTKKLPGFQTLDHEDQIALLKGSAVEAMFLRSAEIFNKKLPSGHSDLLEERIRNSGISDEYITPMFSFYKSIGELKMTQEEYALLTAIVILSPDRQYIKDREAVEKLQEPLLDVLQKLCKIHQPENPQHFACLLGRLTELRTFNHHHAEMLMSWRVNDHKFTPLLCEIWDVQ
Kind of assay: Human FXR (NR1H4) Assay: Gal4 promoter driven luciferase reporter transactivation in CHO cells (Indigo Bioscience kit IB00601). On Efficacy (%): efficacy normalized to CDCA set as 100%. Type of assay: cell-based. The conditions noted are these: for Emax: CHO, read-out: Efficacy (%); for EC50: Human FXR (NR1H4) reporter assay, potency ranges. The procedure, abridged:
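CHO reporter cells expressing human FXR with an FXR-responsive promoter-driven luciferase were treated with compound dose series at 0.2% DMSO for 22 h at 37 °C. Luciferase activity was then read by luminescence as the measure of FXR activation.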
On the technique in general: Reporter assays use an easily measured gene product as a stand-in for the process of interest.

The values that follow come from patent US10450306B2, “Isoxazole analogs as FXR agonists and methods of use thereof” (Enanta Pharmaceuticals, Inc., priority 2016, dated 2019).

As usually defined, the EC50 is the concentration giving half of the maximal effect. The low end stands for greater potency, the high end for weaker potency.

The structures appear in SMILES notation.

For the compound `CC1(S(=O)(=O)NC(=O)c2cc3sc(N4C5CCC4CC(NCc4c(-c6c(Cl)cccc6Cl)noc4C4CC4)C5)nc3cc2F)CC1` (stereo not drawn) [Example 400-22], the Emax came to 83.2% and the EC50 was less than 1 nM.

Regarding `O=C(O)CNC(=O)c1cc(F)c2nc(N3C4CCC3CC(NCc3c(-c5c(Cl)cccc5Cl)noc3C3CC3)C4)sc2c1` (stereo not drawn) [Example 96], the Emax came out at 136% and the EC50 was 1 to 100 nM.

Turning to `O=C(NS(=O)(=O)C1CC1)c1ccc2nc(N3C4CCC3CC(NCc3c(-c5c(F)cccc5F)noc3C3CC3)C4)sc2c1` (stereo not drawn) [Example 1417], the Emax is 69% and the EC50 lay within 1 to 100 nM.

For the compound `O=C(NS(=O)(=O)N1CCCCC1)c1cc(F)c2nc(N3C4CCC3CC(NCc3c(-c5c(Cl)cccc5Cl)noc3C3CC3)C4)sc2c1` (stereo not drawn) [Example 300], the Emax came out at 143% and the EC50 is less than 1 nM.

For the compound `CC1(S(=O)(=O)NC(=O)c2ccc3nc(N4C5CCC4CC(NCc4c(-c6c(Cl)cccc6Cl)noc4C4CC4)C5)sc3c2)CC1` (stereo not drawn) [Example 202], the Emax is 279% and the EC50 is less than 1 nM.

With `O=C(O)c1cc(F)c2nc(N3CCC(NCc4c(-c5ccccc5OC(F)(F)F)noc4C4CC4)CC3)sc2c1` [Example 642], the Emax came to 85.3% and the EC50 is 100 to 1000 nM.

For the compound `CN(c1nc2ccc(C(=O)O)cc2s1)C1CCC(OCc2c(-c3c(Cl)cccc3Cl)noc2C2CC2)CC1` (stereo not drawn) [Example 170], the Emax is 105% and the EC50 was 100 to 1000 nM.

Take `CC1(S(=O)(=O)NC(=O)c2ccc3nc(N4C5CCC4CC(NCc4c(-c6c(F)cccc6F)noc4C4CC4)C5)sc3c2)CC1` (stereo not drawn) [Example 1421]: the Emax turned out to be 101% and the EC50 fell in the range of 1 to 100 nM.

With `O=C(O)c1ccc(N2C3CCC2CC(NCc2c(-c4c(Cl)cccc4Cl)noc2C2CC2)C3)c(F)c1` [Example 122, 4-((1R,3r,5S)-3-(((5-cyclopropyl-3-(2,6-dichlorophenyl)isoxazol-4-yl)methyl)amino)-8-azabicyclo[3.2.1]octan-8-yl)-3-fluorobenzoic acid], the Emax is 90% and the EC50 was 1 to 100 nM.

For `O=C(NS(=O)(=O)N1CCCC1)c1cc(F)c2nc(N3CCC(NCc4c(-c5c(Cl)cccc5Cl)noc4C4CC4)CC3)sc2c1` [Example 400-7], the Emax is 91% and the EC50 lay within 1 to 100 nM.

For the compound `CN(C)S(=O)(=O)NC(=O)c1ccc2nc(N3C4CCC3CC(NCc3c(-c5c(Cl)cccc5Cl)noc3C3CC3)C4)oc2c1` (stereo not drawn) [Example 301], the Emax amounted to 63% and the EC50 was less than 1 nM.

Turning to `CCOC(=O)c1ccc2nc(NC3CCN(Cc4c(-c5c(Cl)cccc5Cl)noc4C4CC4)CC3)sc2c1` [Example 183], the Emax turned out to be 119% and the EC50 is greater than 1000 nM.

Consider `CC(C)(C)c1ccc(S(=O)(=O)NC(=O)c2cccc(N3CCN(Cc4c(-c5c(Cl)cccc5Cl)noc4C4CC4)CC3)c2)cc1` [Example 285], for which the Emax amounted to 126% and the 50% effective concentration (EC50) was in the range of 100 to 1000 nM.

`CC(C)Oc1cc(C(=O)O)cc2sc(N3CCC(NCc4c(-c5ccccc5OC(F)(F)F)noc4C4CC4)CC3)nc12` [Example 640]: the Emax amounted to 92.3% and the EC50 lay in the range of 1 to 100 nM.

On to `COC(=O)c1cc(OC(C)C)c2nc(N3C4CCC3CC(NCc3c(-c5ccccc5C(F)(F)F)noc3C3CC3)C4)sc2c1` (stereo not drawn) [Example 1403], for which the Emax was 119% and the EC50 was in the range of 1 to 100 nM.

On to `COC(=O)c1cc2sc(N3C4CCC3CC(NCc3c(-c5c(Cl)cccc5Cl)noc3C3CC3)C4)nc2cc1Br` (stereo not drawn) [Example 200-19], for which the Emax worked out at 50.5% and the half-maximal effective concentration (EC50) lay within 1 to 100 nM.

`CC(C)Oc1cc(C(=O)NS(=O)(=O)C2CC2)cc2sc(N3CCC(NCc4c(-c5ccccc5OC(F)(F)F)noc4C4CC4)CC3)nc12` [Example 900-5]: the Emax worked out at 68.5% and the EC50 lay in the range of 100 to 1000 nM.

In the case of `COC(=O)c1cc(F)c2nc(N3C4CCC3CC(NCc3c(-c5ccccc5OC(F)(F)F)noc3C3CC3)C4)sc2c1` (stereo not drawn) [Example 403], the Emax amounted to 61% and the EC50 is 1 to 100 nM.
